# Measured values from US20220041691A1, “METHODS FOR DIAGNOSING OR TREATING POST-TRAUMATIC STRESS DISORDER, AND COMPOSITIONS THEREFOR” (Centre for Addiction and Mental Health, priority 2018, published 2022).
# “Also recorded” adds a separate entry of the source.
# How the values were obtained:
# GR-FKBP51 complex [1] = biological target: T1, GR-FKBP51 complex (Mus musculus, UniProt Q64378); assay: Co-immunoprecipitation of GR-FKBP51 complex in acute mouse brain slices treated with peptide; format: cell-based; conditions: versus control TAT peptide
# T1 construct: from tissue; host or cells: C57Bl/6 mouse brain (acute slices; whole-brain lysate) and blood lymphocytes
# T1 sequence (Q64378 1-456): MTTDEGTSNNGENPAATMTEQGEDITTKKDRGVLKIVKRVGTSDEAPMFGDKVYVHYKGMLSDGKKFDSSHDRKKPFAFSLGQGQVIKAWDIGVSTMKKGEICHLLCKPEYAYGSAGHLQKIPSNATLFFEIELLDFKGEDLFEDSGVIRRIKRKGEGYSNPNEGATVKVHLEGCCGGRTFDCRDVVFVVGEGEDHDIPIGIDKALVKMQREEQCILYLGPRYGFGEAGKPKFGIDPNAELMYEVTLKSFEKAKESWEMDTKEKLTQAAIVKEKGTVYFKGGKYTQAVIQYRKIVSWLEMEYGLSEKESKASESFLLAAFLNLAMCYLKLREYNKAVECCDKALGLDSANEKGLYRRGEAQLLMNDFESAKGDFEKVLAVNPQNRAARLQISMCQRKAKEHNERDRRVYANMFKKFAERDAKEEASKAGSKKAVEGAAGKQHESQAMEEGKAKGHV
# Method: Thus, it is concluded that the GRNT-4-1 region is important for GR-FKBP51 complex formation, and that GRpep disrupted the GR-FKBP51 complex.
# (§1) Co-immunoprecipitation and Western blot analyses were performed as previously described.^24, 25, 26 For co-immunoprecipitation, 500˜1000 μg solubilized protein was extracted from whole mouse brain and incubated with primary antibody or control IgG (2˜4 μg) for 4 hrs at 4° C., followed by the addition of 25 μl protein A/G plus agarose (Santa Cruz Biotechnology) for 12 hrs. Pellets were washed, boiled for 5 min in SDS sample buffer and subjected to SDS-PAGE. 50˜100 μg of total protein extract was used as control in each experiment. After transfer of proteins into nitrocellulose, membranes were Western blotted with the primary antibodies. The intensity of protein level was quantified by densitometry (software: ImageLab, Bio-Rad).
# Acute brain slices (350 μm thick) were prepared from C57Bl/6 mice with a McIlwain tissue chopper (Mickle Laboratory Engineering, Gomshall, United Kingdom). After being dissected from the brain, mouse cerebral hemispheres were left for 5 min in ice-cold artificial cerebrospinal fluid (aCSF) containing 126 mM NaCl, 2.5 mM KCl, 1 mM MgCl2, 1 mM CaCl2, 1.25 mM KH2PO4, 26 mM NaHCO3 and 20 mM glucose, which was bubbled continuously with carbogen (95% O2/5% CO2). […]
# GR-FKBP51 complex [2] = biological target: T1, GR-FKBP51 complex; assay: Co-immunoprecipitation of GR-FKBP51 complex in brain and lymphocyte lysate of fear-conditioned mice injected with peptide; format: in vivo
# Method: Furthermore, testing was performed to determine whether disrupting the GR-FKBP51 complex reduced consolidation of cued fear memory. Thus, TAT or TAT-GRpep was administered two hours after the end of fear conditioning training (FIG. 4C), before five consecutive daily extinction sessions of cue exposure without shock.
# as §1
# nuclear GR [3] = assay: Nuclear protein isolation, nuclear GR in mouse brain slices; format: cell-based; conditions: 10 μM, 30 min, vs TAT or untreated controls, p<0.001, n=3
# Method: To test this hypothesis, the effect of TAT-GRpep on GR-FKBP52 levels was examined using co-immunoprecipitation. […] Similar results were also obtained using confocal microscope in primary mouse neuron cultures.
# Acute brain slices (350 μm thick) were prepared from C57Bl/6 mice with a McIlwain tissue chopper (Mickle Laboratory Engineering, Gomshall, United Kingdom). After being dissected from the brain, mouse cerebral hemispheres were left for 5 min in ice-cold artificial cerebrospinal fluid (aCSF) containing 126 mM NaCl, 2.5 mM KCl, 1 mM MgCl2, 1 mM CaCl2, 1.25 mM KH2PO4, 26 mM NaHCO3 and 20 mM glucose, which was bubbled continuously with carbogen (95% O2/5% CO2). Freshly cut slices were placed in an incubating chamber with carbogenated aCSF and recovered from stress at 37° C. for 1 hour. Slices were then treated with TAT or TAT-GRpep and harvested for Western blot analysis.
# (§2) Nuclear protein isolation assays were performed in acute mouse brain slices or mouse brain tissue using the Nuclear Protein Extraction Kit (Bio Basic Inc., Amherst, N.Y.). Briefly, after treatment with TAT or TAT-GRpep, mouse brain slices were harvested for nuclear protein extraction according to the manufacturer's instructions.
# [4] = tested on: GR and FKBP52 colocalization in primary neurons; assay: Immunocytochemistry of GR and FKBP52 in primary mouse neurons; format: cell-based
# Method: Cortical tissues from embryonic day (E14) mouse brains were dissected out, incubated with 0.25% trypsin for 15 min at 37° C., and dissociated by mechanical trituration. Neurons were then plated at a desired density onto glass coverslips previously coated with 0.1 mg/ml poly-d-lysine, and grown in Neurobasal medium with 1× Glutamax, 1×B27, 100 U/ml penicillin and 100 μg/ml streptomycin in an incubator (37° C., 5% CO2). Either 10 μM of TAT-GRpep, 10 μM TAT-control peptide or saline were added in culture plates for 45 min in advance at 8 days in vitro (8 DIV).
# Cultured neurons were fixed in 4% PFA/4% sucrose, permeabilized with 0.1M PBS containing 0.1% Triton X-100 for 10 min, and blocked for 1 hour with 1% bovine serum albumin in PBS at room temperature. They were incubated with primary antibodies overnight at 4° C. and secondary antibodies for 1 hour at room temperature. The following primary antibodies were used: anti-GR (1:200; Thermo), anti-FKBP51 (1:200; Abcam) and anti-FKBP52 (1:200; Abcam). […] DAPI was used to stain cell nuclei.
# GR-FKBP52 complex = assay: Co-immunoprecipitation of GR-FKBP52 complex in brain of fear-conditioned mice; format: in vivo; conditions: fear-conditioned mouse brain, 3 nmol/g i.p; vs TAT alone or saline; p<0.05, n=3
# Method: as §1
# nuclear GR [5] = assay: Nuclear protein isolation, nuclear GR in brain of fear-conditioned mice; format: in vivo, mouse; conditions: 3 nmol/g i.p, vs TAT alone or saline, p<0.05, n=4
# Method: as §2
sequence,measurement,setting,value
GRKKRRQRRRPQSPWRSDLLIDENCLL (Amino Acid Sequence of TAT-GRpep Peptide),GR-FKBP51 complex level (co-immunoprecipitation),GR-FKBP51 complex [1],able to disrupt the GR-FKBP51 complex; also recorded: reduced GR-FKBP51 levels
same,GR-FKBP51 complex level in brain (co-immunoprecipitation),"GR-FKBP51 complex [2]; brain lysate of fear-conditioned mice injected with TAT or TAT-GRpep, p<0.05, n=3",able to block the increase of GR-FKBP51 complex; also recorded: disrupt the GR-FKBP51 complex
same,GR-FKBP51 complex level in lymphocyte lysate / peripheral blood (co-immunoprecipitation),"GR-FKBP51 complex [2]; lymphocyte lysate from blood of fear-conditioned mice, p<0.01 vs TAT, n=4",able to disrupt the GR-FKBP51 complex
same,nuclear GR level / proportion of GR in the nucleus,nuclear GR [3],higher levels of nuclear GR; also recorded: significantly increased
same,nuclear GR levels,"[4]; primary mouse neuron cultures, confocal microscope",markedly increased nuclear GR levels
same,nuclear GR-FKBP52 colocalization,"[4]; primary neurons 8 DIV, 10 μM, 45 min",marked increase in nuclear GR-FKBP52 colocalization
same,colocalization between GR and FKBP52,"[4]; primary neurons 8 DIV, 10 μM, 45 min, vs saline and control peptide",significantly more colocalization between GR and FKBP52; also recorded: co-localized more
same,GR-FKBP52 complex (FKBP52 co-immunoprecipitated by GR antibody),GR-FKBP52 complex,more FKBP52 was co-immunoprecipitated by GR antibody; also recorded: significant increases in GR-FKBP52 complex levels
same,nuclear GR level / GR nuclear localization,nuclear GR [5],higher levels of nuclear GR; also recorded: increased
